Data on 2 compounds can be found in ChEMBL document CHEMBL1139660, “Imidazo[1,2-b][1,2,4]triazines as alpha2/alpha3 subtype selective GABA A agonists for the treatment of anxiety” (Bioorg Med Chem Lett, 2006).

Data set [1] deals with T1, GABA-A receptor; alpha-5/beta-3/gamma-2 (Homo sapiens, UniProt P18507+P28472+P31644).
T1 sequence (P18507 whole entry): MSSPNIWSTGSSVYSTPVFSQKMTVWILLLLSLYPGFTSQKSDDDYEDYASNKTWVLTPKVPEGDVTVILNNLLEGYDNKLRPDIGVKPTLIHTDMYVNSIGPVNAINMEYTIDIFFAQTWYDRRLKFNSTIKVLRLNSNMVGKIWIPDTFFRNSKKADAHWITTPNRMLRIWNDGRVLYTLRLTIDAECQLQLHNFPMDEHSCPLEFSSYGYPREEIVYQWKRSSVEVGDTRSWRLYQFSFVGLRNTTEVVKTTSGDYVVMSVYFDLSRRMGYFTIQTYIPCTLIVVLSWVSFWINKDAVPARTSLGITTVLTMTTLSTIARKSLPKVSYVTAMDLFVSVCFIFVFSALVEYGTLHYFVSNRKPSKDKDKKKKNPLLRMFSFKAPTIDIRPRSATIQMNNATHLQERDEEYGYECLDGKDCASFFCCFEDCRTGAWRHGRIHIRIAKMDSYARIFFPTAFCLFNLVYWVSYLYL
T1 sequence (P28472 whole entry): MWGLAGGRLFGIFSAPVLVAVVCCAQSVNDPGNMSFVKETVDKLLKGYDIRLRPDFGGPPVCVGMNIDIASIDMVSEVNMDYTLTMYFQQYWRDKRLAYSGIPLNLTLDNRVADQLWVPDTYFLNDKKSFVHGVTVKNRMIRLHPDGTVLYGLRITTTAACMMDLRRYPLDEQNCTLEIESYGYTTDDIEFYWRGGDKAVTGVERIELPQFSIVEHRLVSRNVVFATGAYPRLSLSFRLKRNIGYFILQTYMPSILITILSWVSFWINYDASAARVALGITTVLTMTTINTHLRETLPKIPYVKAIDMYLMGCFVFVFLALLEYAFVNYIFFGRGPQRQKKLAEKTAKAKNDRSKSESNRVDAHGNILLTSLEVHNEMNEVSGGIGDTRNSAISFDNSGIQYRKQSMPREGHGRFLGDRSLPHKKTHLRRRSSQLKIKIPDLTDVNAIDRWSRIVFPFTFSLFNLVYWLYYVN
T1 sequence (P31644 whole entry): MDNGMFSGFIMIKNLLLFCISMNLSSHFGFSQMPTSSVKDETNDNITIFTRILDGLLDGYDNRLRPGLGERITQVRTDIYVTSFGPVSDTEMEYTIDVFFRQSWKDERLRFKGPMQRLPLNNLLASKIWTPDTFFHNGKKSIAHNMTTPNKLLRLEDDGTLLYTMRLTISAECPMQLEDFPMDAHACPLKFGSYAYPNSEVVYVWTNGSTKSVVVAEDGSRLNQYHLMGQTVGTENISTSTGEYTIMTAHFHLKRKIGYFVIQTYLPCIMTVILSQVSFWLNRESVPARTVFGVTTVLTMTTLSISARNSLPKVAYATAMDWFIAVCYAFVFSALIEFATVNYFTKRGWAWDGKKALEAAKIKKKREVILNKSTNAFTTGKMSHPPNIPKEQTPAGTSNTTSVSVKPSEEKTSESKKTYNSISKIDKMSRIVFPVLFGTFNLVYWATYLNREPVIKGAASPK
Briefly: Displacement of [3H]Ro 15-1788 from recombinant human GABA-Aalpha5 receptor plus beta-3-gamma-2 expressed in L(tk-) cells. The class given is cell-based. (In general: Displacement assays read how much labelled ligand stays bound in the presence of the test substance.)

Data set [2] has as its target T2, GABA-A receptor; alpha-2/beta-3/gamma-2 (Homo sapiens, UniProt P18507+P28472+P47869).
T2 sequence (P18507 whole entry): T1 sequence (P18507 whole entry)
T2 sequence (P28472 whole entry): T1 sequence (P28472 whole entry)
T2 sequence (P47869 whole entry): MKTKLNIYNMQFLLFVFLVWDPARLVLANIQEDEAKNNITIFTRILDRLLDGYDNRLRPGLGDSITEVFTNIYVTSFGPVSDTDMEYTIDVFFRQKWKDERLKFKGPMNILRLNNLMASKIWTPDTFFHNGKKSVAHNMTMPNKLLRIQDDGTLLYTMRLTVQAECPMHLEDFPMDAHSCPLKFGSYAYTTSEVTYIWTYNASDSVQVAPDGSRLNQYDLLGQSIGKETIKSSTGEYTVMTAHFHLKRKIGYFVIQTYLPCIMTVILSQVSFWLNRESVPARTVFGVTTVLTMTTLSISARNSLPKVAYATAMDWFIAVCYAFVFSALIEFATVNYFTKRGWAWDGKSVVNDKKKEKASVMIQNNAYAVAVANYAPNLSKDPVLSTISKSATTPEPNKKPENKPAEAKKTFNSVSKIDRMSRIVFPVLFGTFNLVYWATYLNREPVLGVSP
Briefly: Displacement of [3H]Ro 15-1788 from recombinant human GABA-Aalpha2 receptor plus beta-3-gamma-2 expressed in mouse L(tk-) cells. The class given is cell-based.

The target of data set [3] is T3, GABA-A receptor; alpha-3/beta-3/gamma-2 (Homo sapiens, UniProt P18507+P28472+P34903).
T3 sequence (P18507 whole entry): T1 sequence (P18507 whole entry)
T3 sequence (P28472 whole entry): T1 sequence (P28472 whole entry)
T3 sequence (P34903 whole entry): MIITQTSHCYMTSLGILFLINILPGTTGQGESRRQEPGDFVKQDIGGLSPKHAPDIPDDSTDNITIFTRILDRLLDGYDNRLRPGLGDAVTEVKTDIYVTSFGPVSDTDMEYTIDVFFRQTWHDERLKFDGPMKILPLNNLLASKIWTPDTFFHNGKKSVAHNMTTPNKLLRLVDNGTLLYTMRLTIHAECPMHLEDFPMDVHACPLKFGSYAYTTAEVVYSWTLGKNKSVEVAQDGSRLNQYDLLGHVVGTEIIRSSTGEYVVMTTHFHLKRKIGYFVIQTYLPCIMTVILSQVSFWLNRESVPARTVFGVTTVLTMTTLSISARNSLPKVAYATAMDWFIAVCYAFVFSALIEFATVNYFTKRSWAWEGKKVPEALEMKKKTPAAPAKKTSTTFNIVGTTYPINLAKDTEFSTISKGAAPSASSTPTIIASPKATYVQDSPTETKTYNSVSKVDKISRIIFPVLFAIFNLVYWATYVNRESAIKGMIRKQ
Briefly: Displacement of [3H]Ro 15-1788 from recombinant human GABA-Aalpha3 receptor plus beta-3-gamma-2 expressed in L(tk-) cells. The format is cell-based.

Data set [4] addresses GABA-A receptor; alpha-1/beta-3/gamma-2 (Homo sapiens) (UniProt P14867+P18507+P28472). In words: Efficacy against recombinant human GABA-Aalpha1 receptor plus beta-3-gamma-2 expressed in L(tk-) cells by whole cell patch clamp method. The format is functional, cell-based. On the technique in general: The patch-clamp technique gives a direct electrical read-out from membranes.

Data set [5] addresses GABA-A receptor; alpha-3/beta-3/gamma-2 (Homo sapiens) (UniProt P18507+P28472+P34903). In words: Efficacy against recombinant human GABA-Aalpha3 receptor plus beta-3-gamma-2 expressed in L(tk-) cells by whole cell patch clamp method relative to chlordiazepoxide. The format is functional, cell-based.
Data set [6] is described as follows: Oral bioavailability in Sprague-Dawley rat at 1 mg/kg, iv or 1 mg/kg, po. Conditions: in vivo. The format is ADME, organism-based.
Data set [7] in a line: Plasma clearance in Beagle dog at 1 mg/kg, iv or 1 mg/kg, po. The class given is ADME, organism-based, Canis lupus familiaris.
For data set [8], the target named is GABA-A receptor; alpha-2/beta-3/gamma-2 (Homo sapiens) (UniProt P18507+P28472+P47869). In words: Efficacy against recombinant human GABA-Aalpha2 receptor plus beta-3-gamma-2 expressed in L(tk-) cells by whole cell patch clamp method relative to chlordiazepoxide. The format is functional, cell-based.

One may read the Ki as a dissociation constant, usually derived from enzyme kinetics or from competition with a known ligand. Turning to `CC(C)(O)c1cnn2c(-c3ccc(F)c(-c4ncccc4C#N)c3)cnc2n1`, the Ki in data set [1] stood at 9.34 nM; in data set [2] it was 8.43 nM; in data set [3], 9.53 nM. Also, the Efficacy in data set [4] is 0.01; in data set [5] it was 0.69; in data set [8] it was 0.37. The bioavailability in data set [6] amounted to 102%. For the same compound, the clearance in data set [7] came out at 2.2 mL/min/kg.

`CC(C)(O)c1cnn2c(-c3ccc(F)c(-c4ncc(F)cc4F)c3)cnc2n1`: the values for the Ki in data set [1], in data set [2] and in data set [3] were 2.71 nM, 3.44 nM and 4.5 nM, respectively. Further, the Efficacy in data set [4] is 0; in data set [5], 0.5; in data set [8], 0.39. The bioavailability in data set [6] worked out at 69%. Further, the clearance in data set [7] was 0.5 mL/min/kg.
